Measured values published in patent publication US20230211023A1, “REPORTER SYSTEM FOR RADIONUCLIDE IMAGING” (Erasmus University Medical Center Rotterdam, priority 2020, published 2023).

Key:
LgBiT = LgBiT (Oplophorus gracilirostris, UniProt Q9GV45, A31E/A60N/A81I/D135N/F58L/F95D/G42A/G62A/G78A/G94A/G98A/H120P/I103V/I117V/I134L/K70R/L176M/L54V/L73R/L99Q/M102E/N171T/P142E/Q151K/Q38E/Q45L/V71I/Y165I); details: Dixon et al., 2016; read-out: Kd for binding to LgBiT / NLuc; cited from earlier work
[1] = test system: cells expressing the reporter gene TMLgBiT; experiment: Binding of radiolabelled peptide to live cells expressing TMLgBiT, gamma counter; type: cell-based; details: 1 nM peptide, 20,000 cells/well, washed three times
Protocol: The [^111In]-DOTA-6ahx-HiBiT peptide (1 nM) is added to cells expressing the reporter gene TMLgBiT and cells not expressing TMLgBiT are used as negative control (20,000 cells/well). Cells are washed three times and radioactivity measured at a gamma counter. A clear difference in radioactive signal (2000 fold) resulted between TMLgBiT expressing cells and cells non expressing the reporter gene. In FIG. 3, the radiation (in CPM, measured using a gamma counter) of cells expressing TMLgBiT and control cells after addition of […] of radioactive [^111In]-DOTA-6ahx-HiBiT peptide is provided.

PC3-TMLgBiT tumors = experiment: BL and dynamic SPECT/CT imaging of mice bearing PC3-TMLgBiT tumors (FIG. 7); type: in vivo, mouse; details: dynamic SPECT scan 1 hour after injection of 0,13 nM
Protocol: For these experiments, eight-week-old nude BALB/C male mice (n=12) were injected with 5x10^6 PC-3-TM-LgBiT expressing cells (n=8). Cells were prepared for injections in PBS (Sigma-Aldrich) and matrigel (Corning) solution with a 50:50 ratio and a final injectable volume of 50 µL. Tumors were left to grow approximately 3-4 weeks post tumor cell implantation. To determine the functionality of the imaging system, a dynamic whole body SPECT/CT scan (VECT/CT Milabs) was performed. Mice were anesthetized using 1-2% isoflurane/O2 and the body temperature was maintained at 37° C. during the time of imaging (1 h) by using a heated bed aperture. The 1-hour dynamic SPECT/CT scan was performed immediately after tail vein injection of [^111In]-DOTA-6ahx-HiBiT for the PC-3 tumor model, (20 MBq labeled to 0.13 nmol in 200 µL PBS). […] Dynamic scans were obtained over a total duration of 1 h with 30 time frames, directly after injection of [^111In]-DOTA-6ahx-HiBiT. Acquired images were reconstructed using SR-OSEM with 9 iterations and 128 subsets on a 36 × 36 × 35 mm matrix with 0.80 × 0.80 mm isotropic voxels.

[2] = test system: subcutaneously injected TMLgBiT expressing cells; experiment: SPECT imaging of mouse injected subcutaneously with TMLgBiT expressing cells; type: in vivo; details: 1 hour after injection of peptide, 20 MBq
subcutaneously injected TMLgBiT expressing cells, sequence (as listed by the source): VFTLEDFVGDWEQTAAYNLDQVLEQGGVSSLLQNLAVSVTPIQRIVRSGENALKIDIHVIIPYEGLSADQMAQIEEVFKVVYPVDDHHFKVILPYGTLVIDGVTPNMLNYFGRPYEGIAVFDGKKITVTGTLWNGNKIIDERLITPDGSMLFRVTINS

LgBiT, sequence (Q9GV45 other isoform, or with tags, fused parts or gaps with the stated changes): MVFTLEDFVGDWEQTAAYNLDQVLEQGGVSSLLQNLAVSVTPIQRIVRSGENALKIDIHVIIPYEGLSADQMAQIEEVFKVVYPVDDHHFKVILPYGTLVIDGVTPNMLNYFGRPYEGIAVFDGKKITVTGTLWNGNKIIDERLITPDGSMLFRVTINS
PC3-TMLgBiT tumors, sequence (as listed by the source): as the sequence (as listed by the source) above
cells expressing the reporter gene TMLgBiT, sequence (as listed by the source): as above

Substance	Kd (LgBiT) [nM]	difference in radioactive signal between TMLgBiT expressing cells and cells not expressing the reporter gene [1] [fold]	SPECT signal from tumor (PC3-TMLgBiT tumors)	SPECT detection of TMLgBiT expressing cells in vivo [2]	SPECT detection of TMLgBiT expressing cells in vivo ([2]; listed as 111In -DOTA-6ax-HiBit)	SPECT detection of TMLgBiT expressing cells in vivo ([2]; listed as radiolabeled HiBiT peptide)
NVTGYRLFKKISN [NLpep79]	8.5	–	–	–	–	–
NVSGWRLFKKISN [NLpep78]	3.4	–	–	–	–	–
[^111In]-DOTA-6ahx-HiBiT: DOTA-6ahx-HiBiT radiolabelled with indium-111	–	2000	specific signal from tumor is visible	can be specifically detected	could be detected in vivo	High specific signal is detected
